In brackets after ≈: the same amount, converted by molar mass. Like-named read-outs stand apart in the source and are kept apart here. Peptide text beside a SMILES is read from it.
How the values were obtained:
V. vulnificus = assay type: cell-based, Vibrio vulnificus; conditions: 5 min with 100 µM ampicillin or 4 µM SMAP-29D, relative to PBS control cells
Method: (§4) The number of CFU of E. cloacae 4080 were quantified as a function of time of incubation with a 2 µM concentration of the individual peptides. In the reactions with kanamycin (Kan), 25 µg/ml of kanamycin sulfate was used. […] The initial inoculum was 10^6 CFU in LB. […] (D to F) Fluorescence microscopy of V. vulnificus cells. […] An enlarged image of a single cell is highlighted in the boxed region. White arrows denote bulges extending from the bacterial membrane. […] Bacterial DNA is stained with DAPI (blue). […] The fate of cellular cytoplasmic contents was tracked following expression of a FliM-tdTomato fusion protein (red).

V. cholerae = assay type: cell-based, Vibrio cholerae; conditions: 5 min with 100 µM ampicillin or 4 µM SMAP-29D, relative to PBS control cells
Method: as §4

V. fischeri = assay: Bacterial killing, colony formation (CFU); assay type: cell-based; conditions: 2 µM peptide, 30 min incubation
K. pneumoniae = assay: Bacterial killing, colony formation (CFU); assay type: cell-based, Klebsiella pneumoniae
Method: A total of 1 × 10^5 CFU of the bacteria were incubated for 30 min with the concentration of peptide or colistin shown. Approximately 500 CFU was then added as a droplet onto nonselective media for 18 h. […] The number shown is the median value of three or four independent assays. The number in parentheses is the standard deviation of all of the assays. […] (C) Quantitative analysis of the viable colonies formed by colistin-resistant bacteria. […] The numbers are the means of three independent assays, and those in parentheses are the range for 1 standard deviation.

E. cloacae 4080 = assay: Bacterial killing, colony formation (CFU); assay type: cell-based, Enterobacter cloacae
Method: The number of CFU of E. cloacae 4080 were quantified as a function of time of incubation with a 2 µM concentration of the individual peptides. In the reactions with kanamycin (Kan), 25 µg/ml of kanamycin sulfate was used. […] The initial inoculum was 10^6 CFU in LB.

V. angustum = assay: Bacterial killing, colony formation (CFU); assay type: cell-based; conditions: 2 µM peptide, 30 min incubation
E. coli = assay type: cell-based, Escherichia coli; conditions: 2 µM peptide
Method: A total of 1 × 10^5 CFU of the bacteria were incubated for 30 min with the concentration of peptide or colistin shown. Approximately 500 CFU was then added as a droplet onto nonselective media for 18 h. […] The number shown is the median value of three or four independent assays. The number in parentheses is the standard deviation of all of the assays. […] The numbers are the means of three independent assays, and those in parentheses are the range for 1 standard deviation.
Incubation time: 0 min 5 min 30 min

TLR3 = TLR3 signaling: IL-6 ELISA in BEAS-2B cells treated with poly(I·C); assay type: cell-based, human
Method: (§1) Eight cathelicidins produced by eight mammals were selected for an initial examination (Fig. 1A). […] However, the number of charged residues and the lengths of the disordered residues differed (Fig. 1B). The peptides were added to BEAS-2B cells, a human lung epithelial cell line that expresses multiple TLRs and can release proinflammatory cytokines in response to their activation and the enhancement of cytokine release by LL-37 ([15]). BEAS-2B cells treated with the TLR3 agonist poly(I⋅C) and 2 µM LL-37 increased interleukin 6 (IL-6) production by threefold. All of the nonhuman cathelicidins tested had lower TLR3 signaling compared to LL-37 (Fig. 1B). The lack of TLR3 signaling by the nonhuman cathelicidins was due to the inability to use the formyl peptide receptor-like receptor 1 to endocytose the double-stranded RNA (dsRNA)−LL-37 complex and deliver the poly(I⋅C) to TLR3 in endosomes ([17]) (see Fig. S1 in the supplemental material). All of the nonhuman cathelicidins also had reduced activation of TLR9 compared to LL-37 (Fig. 1B).
(§2) FIG 1 Cathelicidins from animals have distinct abilities to act on Toll-like receptor signaling. (A) A phylogenetic relationship of cathelicidins from mammals. The figure is derived from results of Zanetti et al. (12). (B) Names, lengths, and sequences of cathelicidin peptides and their ability to affect Toll-like receptor signaling. The peptide lengths are shown in the numbers of amino acids (AAs). The residues predicted to form an α-helix are underlined with an arrow. The basic, acidic, and aromatic residues are colored blue, red, and green, respectively. TLR signaling was assessed by the amount of IL-6 cytokine produced in BEAS-2B cells. IL-6 levels were quantified using enzyme-linked immunosorbent assay (ELISA), and the level of IL-6 in the control cells is normalized to 100%. The peptides were added to the cells at a final concentration of 2 μM. Each result is the mean of a minimum of three independent assays, and the standard deviations (SD) are shown in parentheses.
(§3) The concentration of IL-6 secreted into the cell medium was quantified using the OptEIA kit (BD Biosciences, San Jose, CA). A typical assay used 1 × 10^4 BEAS-2B cells/well grown for 24 h in flat-bottom 96-well plates. Poly(I⋅C) was added to a final concentration of 0.13 µg/ml for 24 h. ODN2006 was added to 0.5 nM. Lipopolysaccharides were used at 0.5 µg/ml. All data shown are the means and ranges of 1 standard error for a minimum of three independent samples. Data sets were compared using the Student t test calculated with GraphPad Prism 5 software.

TLR4 = TLR4 signaling: IL-6 ELISA in BEAS-2B cells treated with LPS; assay type: cell-based, human
Description: as §2
LL-37 at 2 µM final concentration reduced IL-6 production to approximately half that of the untreated cells (Fig. 1B).
as §3

TLR9 = TLR9 signaling: IL-6 ELISA in BEAS-2B cells treated with CpG DNA ODN2006; assay type: cell-based, human; conditions: ODN2006 0.5 nM, peptide 2 µM, control cells = 100%, mean (SD) of minimum three assays
Method: as §1, §2, §3

[1] = 2 µM peptide, 30 min incubation
[2] = broth microdilution, CAMHB, at least three independent assays

Method for 19 Gram-negative strains: (A) Sequences of the cathelicidins, the numbers of bacterial strains killed, and hRBC lysis by the cathelicidins. […] The bacterial species tested are Klebsiella pneumoniae (K. p.), Serratia marcescens (S. m.), Enterobacter cloacae (E. cl.), Escherichia coli (E. c.), and Pseudomonas aeruginosa (P. a.). MICs were determined by the microdilution assay. […] The results are the median values of at least three independent assays.
We tested a panel of cathelicidins for inhibiting growth of 19 Gram-negative strains from the family Enterobacteriaceae and the nonfermentative bacteria. The species tested were Enterobacter cloacae ([2]), Escherichia coli ([5]), Klebsiella pneumoniae ([4]), Pseudomonas aeruginosa ([4]), and Serratia marcescens ([4]). All of the strains selected have been characterized for their antibiotic resistance profiles.
(§5) Antimicrobial activity was determined using the broth microdilution method based on the guidelines of the Clinical and Laboratory Standards Institute (CLSI) ([39]), using cation-adjusted Mueller-Hinton broth (CAMHB) as the testing medium. Reference Gram-positive and Gram-negative bacteria were tested, including both enteric and Pseudomonas aeruginosa strains. Each MIC was determined in at least three independent assays.
Method for E. faecalis: as §5
Method for Enterobacter cloacae: (§6) The bacterial species tested are Klebsiella pneumoniae (K. p.), Serratia marcescens (S. m.), Enterobacter cloacae (E. cl.), Escherichia coli (E. c.), and Pseudomonas aeruginosa (P. a.). MICs were determined by the microdilution assay. […] The results are the median values of at least three independent assays.
as §5
Method for Escherichia coli: as §6, §5
Method for Klebsiella pneumoniae: as §6, §5
Method for Pseudomonas aeruginosa: as §6, §5
Method for S. aureus: as §5
Method for Serratia marcescens: as §6, §5

CC1(C)S[C@@H]2[C@H](NC(=O)[C@H](N)c3ccccc3)C(=O)N2[C@H]1C(=O)O [ampicillin]
reduction in CFU, V. vulnificus (V. vulnificus): less than 1 log10 unit | reduction in CFU, V. cholerae (V. cholerae): less than 1 log10 unit

CC[C@H](C)[C@H](NC(=O)[C@@H](NC(=O)[C@@H]1CCCN1C(=O)[C@H](CO)NC(=O)[C@H](CC(C)C)NC(=O)[C@H](CCCCN)NC(=O)[C@H](CCCCN)NC(=O)[C@H](Cc1ccccc1)NC(=O)[C@H](CC(C)C)NC(=O)[C@H](CCCCN)NC(=O)[C@H](CCCCN)NC(=O)[C@H](CC(C)C)NC(=O)[C@H](CCCCN)NC(=O)[C@H](CCCCN)NC(=O)[C@H](CCCNC(=N)N)NC(=O)[C@H](CC(C)C)NC(=O)[C@H](CCCNC(=N)N)NC(=O)[C@H](CCCCN)NC(=O)[C@H](Cc1ccccc1)NC(=O)[C@H](CCCNC(=N)N)NC(=O)CN)C(C)C)C(=O)N1CCC[C@H]1C(=O)N[C@@H](CC(C)C)C(=O)N[C@@H](CC(C)C)C(=O)N[C@@H](Cc1c[nH]cn1)C(=O)N[C@@H](CC(C)C)C(=O)NCC(=O)O [BMAP-27B] (H-GRFKRLRKKLKKLFKKLSPVIPLLHLG-OH)
CFU/ml (SD) V. fischeri, 30 min (V. fischeri): < 20 CFU/ml | Fold redu. from To, V. fischeri, 30 min (V. fischeri): > 48,000 fold | No. of strains inhibited at 16 µg/ml/total no. of strains (19 Gram-negative strains): 19/19 | CFU/ml (SD) K. pneumonia 8893, 5 min (K. pneumoniae; 2 µM peptide, 5 min incubation): < 200 CFU/ml | Fold redu. from To, K. pneumonia 8893, 5 min (K. pneumoniae; 2 µM peptide, 5 min incubation): 1050 fold | Fold redu. from To, K. pneumonia C-2, 5 min (K. pneumoniae; 2 µM peptide, 5 min incubation): 25 fold | CFU/ml (SD) K. pneumonia 8893, 30 min (K. pneumoniae; [1]): < 25 CFU/ml | CFU/ml (SD) K. pneumonia C-2, 30 min (K. pneumoniae; [1]): 50 CFU/ml | Fold redu. from To, K. pneumonia 8893, 30 min (K. pneumoniae; [1]): > 8,400 fold | Fold redu. from To, K. pneumonia C-2, 30 min (K. pneumoniae; [1]): > 13,000 fold | reduction in CFU, colistin-resistant K. pneumoniae (K. pneumoniae; 2 µM, Fig. 5C (K. pneumoniae 59) and data not shown): > 2 log10 unit | MIC E. faecalis 29212 (E. faecalis): >32 mg/L | MIC E. faecalis 51299 (E. faecalis): >32 mg/L | Fold redu. from To, En. cloacae 4080, 5 min (E. cloacae 4080): 2400 | Fold redu. from To, En. cloacae 4080, 30 min (E. cloacae 4080): > 19,200 | CFU/ml (SD) En. cloacae 4080, 5 min (E. cloacae 4080; 2 µM peptide (sub-heading; title says 1 µM), 5 min incubation): < 200 CFU/ml | reduction in CFU, 120 min (E. cloacae 4080; 2 µM peptide, 120-min incubation, E. cloacae): > 4 log10 unit | CFU/ml (SD) En. cloacae 4080, 30 min (E. cloacae 4080; [1]): < 25 CFU/ml | # strains inhibited at 16 µg/ml peptide E. cl. (Enterobacter cloacae): 2/2 | MIC E. cloacae 4092 (Enterobacter cloacae; [2]): 4 mg/L (≈ 1.24 µM) | MIC S. aureus 25923 (S. aureus): 32 mg/L (≈ 9.95 µM) | MIC S. aureus 29213 (S. aureus): 32 mg/L (≈ 9.95 µM) | # strains inhibited at 16 µg/ml peptide P. a. (Pseudomonas aeruginosa): 4/4 | MIC P. aeruginosa 4083 (Pseudomonas aeruginosa): 4 mg/L (≈ 1.24 µM) | MIC P. aeruginosa PAO1 (Pseudomonas aeruginosa): 4 mg/L (≈ 1.24 µM) | MIC P. aeruginosa PAO1 ΔOprD (Pseudomonas aeruginosa; [2]): 4 mg/L (≈ 1.24 µM) | # strains inhibited at 16 µg/ml peptide E. c. (Escherichia coli): 6/6 | MIC E. coli MC4100 (Escherichia coli; [2]): 4 mg/L (≈ 1.24 µM) | CFU/ml (SD) V. angustum, 30 min (V. angustum): 27 CFU/ml | Fold redu. from To, V. angustum, 30 min (V. angustum): > 88,460 fold | # strains inhibited at 16 µg/ml peptide S. m. (Serratia marcescens): 3/3 | # strains inhibited at 16 µg/ml peptide K. p. (Klebsiella pneumoniae): 4/4 | CFU/ml (SD) E. coli IU-342, 5 min (E. coli; 5 min incubation): < 200 CFU/ml | Fold redu. from To, E. coli IU-342, 5 min (E. coli; 5 min incubation): 850 fold | CFU/ml (SD) E. coli IU-342, 30 min (E. coli; 30 min incubation): < 25 CFU/ml | Fold redu. from To, E. coli IU-342, 30 min (E. coli; 30 min incubation): > 6,800 fold

CC[C@H](C)[C@H](NC(=O)[C@H](CCCCN)NC(=O)[C@H](CCC(=O)O)NC(=O)[C@H](CCCCN)NC(=O)[C@H](CO)NC(=O)[C@H](CCCCN)NC(=O)[C@H](CCCNC(=N)N)NC(=O)[C@H](Cc1ccccc1)NC(=O)[C@H](Cc1ccccc1)NC(=O)[C@H](CC(=O)O)NC(=O)CNC(=O)[C@H](CC(C)C)NC(=O)[C@@H](N)CC(C)C)C(=O)NCC(=O)N[C@@H](CCCCN)C(=O)N[C@@H](CCC(=O)O)C(=O)N[C@@H](Cc1ccccc1)C(=O)N[C@@H](CCCCN)C(=O)N[C@@H](CCCNC(=N)N)C(=O)N[C@H](C(=O)N[C@H](C(=O)N[C@@H](CCC(N)=O)C(=O)N[C@@H](CCCNC(=N)N)C(=O)N[C@H](C(=O)N[C@@H](CCCCN)C(=O)N[C@@H](CC(=O)O)C(=O)N[C@@H](Cc1ccccc1)C(=O)N[C@@H](CC(C)C)C(=O)N[C@@H](CCCNC(=N)N)C(=O)N[C@@H](CC(N)=O)C(=O)N[C@@H](CC(C)C)C(=O)N[C@H](C(=O)N1CCC[C@H]1C(=O)N[C@@H](CCCNC(=N)N)C(=O)N[C@H](C(=O)N[C@@H](CCC(=O)O)C(=O)N[C@@H](CO)C(=O)O)[C@@H](C)O)C(C)C)[C@@H](C)CC)C(C)C)[C@@H](C)CC [LL-37]
No. of strains inhibited at 16 µg/ml/total no. of strains (19 Gram-negative strains): 0/19 | MIC for any/all of the 19 bacterial strains (19 Gram-negative strains; statement over all 19 Gram-negative strains): at least 32 µg/ml | % IL-6 produced compared to controls (SD) TLR3 (TLR3; poly(I·C) […], peptide 2 µM, ELISA, control cells = 100%, mean (SD) of minimum three assays): 389(16) % | increase of IL-6 production (TLR3; poly(I·C), 2 µM peptide): threefold | # strains inhibited at 16 µg/ml peptide E. cl. (Enterobacter cloacae): 0/2 | MIC E. cloacae 4080 (Enterobacter cloacae; [2]): 32 mg/L (≈ 7.12 µM) | MIC E. cloacae 4092 (Enterobacter cloacae; [2]): >32 mg/L | % IL-6 produced compared to controls (SD) TLR4 (TLR4; BEAS-2B cells, LPS 0.5 µg/ml, peptide 2 µM, ELISA, control cells = 100%, mean (SD) of minimum three assays): 55(3) % | IL-6 production relative to untreated cells (TLR4; LPS-induced TLR4 signaling, 2 µM peptide): approximately half | % IL-6 produced compared to controls (SD) TLR9 (TLR9): 175(15) % | # strains inhibited at 16 µg/ml peptide P. a. (Pseudomonas aeruginosa): 0/4 | MIC P. aeruginosa 4083 (Pseudomonas aeruginosa; [2]): 32 mg/L (≈ 7.12 µM) | MIC P. aeruginosa ATCC 27853 (Pseudomonas aeruginosa; [2]): >32 mg/L | MIC P. aeruginosa PAO1 (Pseudomonas aeruginosa; [2]): 32 mg/L (≈ 7.12 µM) | MIC P. aeruginosa PAO1 ΔOprD (Pseudomonas aeruginosa; [2]): 32 mg/L (≈ 7.12 µM) | # strains inhibited at 16 µg/ml peptide E. c. (Escherichia coli): 0/6 | MIC E. coli ATCC 25922 (Escherichia coli; [2]): 32 mg/L (≈ 7.12 µM) | MIC E. coli ATCC 35218 (Escherichia coli; [2]): 32 mg/L (≈ 7.12 µM) | MIC E. coli IU0342 (Escherichia coli; [2]): 32 mg/L (≈ 7.12 µM) | MIC E. coli J53 AzideR (Escherichia coli; [2]): >32 mg/L | MIC E. coli MC4100 (Escherichia coli; [2]): >32 mg/L | # strains inhibited at 16 µg/ml peptide S. m. (Serratia marcescens): 0/3 | MIC S. marcescens 4075 (Serratia marcescens; [2]): >32 mg/L | MIC S. marcescens 4101 (Serratia marcescens; [2]): >32 mg/L | MIC S. marcescens 4104 (Serratia marcescens; [2]): >32 mg/L | MIC S. marcescens 7553 (Serratia marcescens; [2]): >32 mg/L | # strains inhibited at 16 µg/ml peptide K. p. (Klebsiella pneumoniae): 0/4 | MIC K. pneumoniae 4110 (Klebsiella pneumoniae; [2]): >32 mg/L | MIC K. pneumoniae ATCC 700603 (Klebsiella pneumoniae; [2]): >32 mg/L | MIC K. pneumoniae C2 (Klebsiella pneumoniae; [2]): >32 mg/L | MIC K. pneumoniae OC8893 (Klebsiella pneumoniae; [2]): >32 mg/L

— article PMC5030359, “Cathelicidin Antimicrobial Peptides with Reduced Activation of Toll-Like Receptor Signaling Have Potent Bactericidal Activity against Colistin-Resistant Bacteria” (mBio, 2016)
